Legend:
[1] = Photochemical cleavage assays of incorporated nucleotide analogs (365 nm UV light, DT50); assay type: physicochemical; details: for DT50 in 1 mM NaN3, 50 mM DTT / DT50 in 1 mM NaN3, No DTT: 365 nm UV, 0.70 W/cm^2; for faster photochemical cleavage rates of ds2 isomers compared with their ds1 counterparts, factor: ds2 vs ds1 isomer of the same analog
Method: As used herein, the term “DT50” refers to the amount of time required to cleavage 50% of the base analog incorporated in the primer-template complex.
To compare the rates of photochemical cleavage between the nucleotide analogs described here, a protocol was developed to deliver a daily light intensity output of 0.70±0.01 W/cm^2 to samples, see below.
The power supply was turned on for about 30 min prior to that of the lamp and recirculation bath as described by the manufacturer. The IR liquid filter was cooled to 9° C. Light intensity was determined using a model PM100 power meter (Thorlabs), a 1000 μm pinhole (Edmund Optics), a modified 0.5 mL Eppendorf tube cut in half, and a 3-axis manual translation stage (Newport), see FIG. 5. The half cut Eppendorf tube was positioned in front of the pinhole and power meter detector head to account for the geometric shape distortion of the light as it passes through a reaction solution. The translation stage was then used to align the tube/pinhole/detector device with the highest intensity from the arc beam.
To stabilize its output, the lamp was left on for one hour prior to intensity measurements. Thereafter, the measured power was adjusted by increasing the current from the power supply. In order to achieve intensity (I) of 0.70 W/cm^2, the measured power (P) was adjusted to ˜5.5 mW, according to the equation:
[formula] where r is the radius of pinhole.
The beam was then focused by placing an 0.5 mL Eppendorf tube into the sample holder, the tube of which was modified with an internal alignment card to provide reference lines for volume heights of 10 μL and 20 μL, see FIG. 5. The reference lines enabled the beam to be centered for a given reaction volume. Beam alignment was further verified by observing the mercury arc image of the lamp produced by the rear reflector. A second alignment card was placed into the rotating sample holder to view the image, which when properly aligned using the reflector would produce an inverted arc image on the arc gap itself. This step ensured that arc hotspots were not superimposed, which could cause overheating while maintaining a power output of ˜5.5 mW. The speed of the rotating sample holder was adjusted within a range of 1,200-1,350 rpm using a Nova-Strobe DA Plus stroboscope (Monarch Instrument) by adjusting the motor's torque with an adjustment screw.
Photochemical cleavage assays: Nucleotide analogs were incorporated using 10 μL reactions, as described for the PEP assays, at a final concentration of 100 nM. […] OligoTemplate-2, oligoTemplate-5, and oligoTemplate-4 each hybridized with BODIPY-FL labeled primer-1 were used for C^7-HOMedA, C^7-HOMedG, and HOMedU analogs, respectively. OligoTemplate-8 hybridized with BODIPY-FL labeled primer-3 was used to assay HOMedC analogs. Incorporated reactions were quenched with either 1 mM sodium azide solution; 1 mM sodium azide, 50 mM DTT solution; or reagents C-G (see key in FIG. 4), exposed to 365 nm ultraviolet (UV) light for various time points using our UV deprotector, and then placed on ice.

[2] = tested on: DNA synthesis; experiment: Termination assays (incorporation and termination of DNA synthesis); assay type: biochemical; details: 10 μM
Text: Another class of 3′-OH unblocked nucleotides has been described by Mitra et al. (2003) and Turcatti et al. (2008), which rely on steric hindrance of the bulky dye group to stop incorporation after the addition of the first nucleotide. It is noted that the substituted 2-nitrobenzyl nucleotide analogs described by Wu et al. (2007), Litosh et al. (2011), and Gardner et al., 2012 cause termination of DNA synthesis without the requirement of bulky substituents such as fluorescent dyes. A further class of 3′-unblocked nucleotides has been described by Helicos Biosciences. These nucleotides use a second nucleoside or nucleotide analog that acts as an inhibitor of DNA synthesis (Bowers et al., 2009; U.S. Pat. No. 7,476,734). A significant difference in termination properties is observed when comparing compounds of the present invention with those described by Bowers. For example, Bowers et al. described pre-steady-state kinetics employing two-base homopolymer templates, for which kpol(+2) rates were measured for all of their 3′-OH unblocked ‘virtual’ terminators. Bowers et al. conducted their termination experiments at submicromolar nucleotide concentrations (i.e., from 100 to 250 nM), termination assays. In contrast, several compounds of the present invention were performed at 10 μM over the time course of 0.5 to 20 min. […]

[3] = Table 2, C^7-HOMedG analogs, average ± 1SD, triplicate
[4] = Table 3, reversible terminators
[5] = Table 3, reversible terminators, [a] transient product considered as cleaved product
[6] = Table 1, C^7-HOMedA analogs, average ± 1SD, triplicate
[7] = α-tert-butyl C^7-HOMedG analogs, ds1 isomers

Row | SMILES | DT50 in 1 mM NaN3, 50 mM DTT [1, 3] [s] | DT50 in 1 mM NaN3, No DTT [1, 3] [s] | DT50 in 1 mM NaN3, 50 mM DTT [1, 4] [s] | DT50 in 1 mM NaN3, No DTT [1, 5] | also measured
1 | COc1ccc(C(OCc2cn([C@H]3C[C@H](O)[C@@H](COP(=O)(O)OP(=O)(O)OP(=O)(O)O)O3)c3nc(N)[nH]c(=O)c23)C(C)(C)C)c([N+](=O)[O-])c1 (single isomer, unassigned) [dG.V.b ds2, 7-[1-(4-methoxy-2-nitrophenyl)-2,2-dimethyl-propyloxy]methyl-7-deaza-2′-deoxyguanosine-5′-triphosphate] | 1.3 ± 0.2 | 1.1 ± 0.1 |  |  | faster photochemical cleavage rates of ds2 isomers compared with their ds1 counterparts, factor [1]: 4.5 ×
2 | COc1ccc(C(OCc2cn([C@H]3C[C@H](O)[C@@H](COP(=O)(O)OP(=O)(O)OP(=O)(O)O)O3)c3nc(N)[nH]c(=O)c23)C(C)(C)C)c([N+](=O)[O-])c1 (single isomer, unassigned) [dG.V.b ds1, 7-[1-(4-methoxy-2-nitrophenyl)-2,2-dimethyl-propyloxy]methyl-7-deaza-2′-deoxyguanosine-5′-triphosphate] | 4.6 ± 0.3 | 4.9 ± 0.3 |  |  | 
3 | CC(C)(C)C(OCc1cn([C@H]2C[C@H](O)[C@@H](COP(=O)(O)OP(=O)(O)OP(=O)(O)O)O2)c2nc(N)[nH]c(=O)c12)c1ccccc1[N+](=O)[O-] (stereo partly shown) [dG.V.a ds1, 7-[1-(2-nitrophenyl)-2,2-dimethyl-propyloxy]methyl-7-deaza-2′-deoxyguanosine-5′-triphosphate] | 10.7 ± 0.2 | 11.0 ± 0.4 |  |  | 
4 | COc1ccc([N+](=O)[O-])c([C@@H](OCc2cn([C@H]3C[C@H](O)[C@@H](COP(=O)(O)OP(=O)(O)OP(=O)(O)O)O3)c(=O)[nH]c2=O)C(C)(C)C)c1 [dU.VI, 5-[(S)-1-(5-Methoxy-2-nitrophenyl)-2,2-dimethyl-propyloxy]methyl-2′-deoxyuridine-5′-triphosphate] |  |  | 0.7 ± 0.1 | 0.7 ± 0.1^[a] sec | incorporated at the first base position ([2]; by 2 min): 100%; signal at the expected second-base position (termination of DNA synthesis) ([2]; incubation times up to 20 min): No appreciable signal could be detected
5 | Nc1nc2c(c(COCc3ccccc3[N+](=O)[O-])cn2[C@H]2C[C@H](O)[C@@H](COP(=O)(O)OP(=O)(O)OP(=O)(O)O)O2)c(=O)[nH]1 [dG.I, 7-(2-nitrobenzyloxy)methyl-7-deaza-2′-deoxyguanosine-5′-triphosphate] | 8.1 ± 0.2 | 9.2 ± 0.3 | 8.1 ± 0.2 | 9.2 ± 0.3 s | DT50 values ([1]; UV photochemical cleavage experiments): 9.2 s
6 | CC(C)(C)[C@H](OCc1cn([C@H]2C[C@H](O)[C@@H](COP(=O)(O)OP(=O)(O)OP(=O)(O)O)O2)c2ncnc(N)c12)c1ccccc1[N+](=O)[O-] [dA.V, 7-[(S)-1-(2-nitrophenyl)-2,2-dimethyl-propyloxy]methyl-7-deaza-2′-deoxyadenosine-5′-triphosphate] |  |  | 2.0 ± 0.2 | 2.1 ± 0.1 s | 
7 | COc1ccc(C(OCc2cn([C@H]3C[C@H](O)[C@@H](COP(=O)(O)OP(=O)(O)OP(=O)(O)O)O3)c3ncnc(N)c23)C(C)C)c([N+](=O)[O-])c1 (single isomer, unassigned) [dA.III.b ds1, 7-[1-(4-methoxy-2-nitrophenyl)-2-methyl-propyloxy]methyl-7-deaza-2′-deoxyadenosine-5′-triphosphate] |  |  |  |  | DT50 in 1 mM NaN3, 50 mM DTT [1, 6]: 6.1 ± 0.4 s; DT50 in 1 mM NaN3, No DTT [1, 6]: 7.0 ± 0.3 s; DT50 value of ds1 isomer compared with the parent dA.I analog ([1]; ds1 isomers of the α-isopropyl C^7-HOMedA set): higher
8 | COc1cc(C(OCc2cn([C@H]3C[C@H](O)[C@@H](COP(=O)(O)OP(=O)(O)OP(=O)(O)O)O3)c3nc(N)[nH]c(=O)c23)C(C)(C)C)c([N+](=O)[O-])cc1OC (single isomer, unassigned) [dG.V.d ds1, 7-[1-(4,5-dimethoxy-2-nitrophenyl)-2,2-dimethyl-propyloxy]methyl-7-deaza-2′-deoxyguanosine-5′-triphosphate] | 2.3 ± 0.2 | 2.4 ± 0.1 |  |  | faster cleavage rates compared with mono-substituted 4-OMe isomer [1, 7]: 2.0 ×; faster cleavage rates compared with mono-substituted 5-OMe isomer [1, 7]: 1.5 ×
9 | CC(C)C(OCc1cn([C@H]2C[C@H](O)[C@@H](COP(=O)(O)OP(=O)(O)OP(=O)(O)O)O2)c2ncnc(N)c12)c1c([N+](=O)[O-])cccc1[N+](=O)[O-] (single isomer, unassigned) [dA.III.c ds2, 7-[1-(2,6-dinitrophenyl)-2-methyl-propyloxy]methyl-7-deaza-2′-deoxyadenosine-5′-triphosphate] |  |  |  |  | DT50 in 1 mM NaN3, 50 mM DTT [1, 6]: 2.5 ± 0.1 s; DT50 in 1 mM NaN3, No DTT [1, 6]: 2.8 ± 0.2 s; faster photochemical cleavage rates of ds2 isomers compared with their ds1 counterparts, factor [1]: 1.2 ×

From patent publication US10041115B2, “3′-OH unblocked, fast photocleavable terminating nucleotides and methods for nucleic acid sequencing” (LASERGEN, INC., priority 2011, dated 2018)
